Reference: patent publication US10703764B2, “Benzopiperazine compositions as BET bromodomain inhibitors” (FORMA Therapeutics, Inc., priority 2013, dated 2020)

Experiments:
[1] = target: T1, BRD4 BD2 (Homo sapiens, UniProt O60885); assay: AlphaScreen binding assay, BRD4 Bromodomain 2
T1 construct: made in house
Procedure, shortened: (§1)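 An AlphaScreen competition format was used with His-BRD4 BD1 or BD2 and biotin-H4 K5/8/12/16-acetyl peptide, each at matched final levels of 50 nM (BD1) or 100 nM (BD2). Incubation in HEPES/NaCl buffer with 0.1% BSA and 0.01% Triton X-100 ran ≥1 h before IC50 determination.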

[2] = target: T2, BRD4 BD1 (Homo sapiens, UniProt O60885); assay: AlphaScreen binding assay, BRD4 Bromodomain 1
T2 construct: made in house
Procedure, shortened: as §1

IC50 [1] [nM] | IC50 [2] [µM] | Compound
> 500 | 1 to 10 | COC(=O)N1c2ccc(-c3cnn(CCN(C)C)c3)cc2N(C(=O)OC(C)C)C[C@@H]1C [Example I-645]
> 500 | 1 to 10 | CC(C)OC(=O)N1C[C@H](C)N(C(=O)C2CC2)c2ccc(-c3cnn(CCN(C)C)c3)cc21 [Example I-646]
50 to 500 | 1 to 10 | CC(=O)N1c2ccc(-c3cnn(C(C)(C)C(N)=O)c3)cc2N(C(=O)C2CC2)C[C@@H]1C [Example I-648]
50 to 500 | 1 to 10 | CC(=O)N1c2ccc(-c3cnn(CC(N)=O)c3)cc2N(C(=O)C2CC2)C[C@@H]1C [Example I-655]
50 to 500 | 1 to 10 | CC(=O)N1c2ccc(-c3cnn(CC(=O)N(C)C4CC4)c3)cc2N(C(=O)C2CC2)C[C@@H]1C [Example I-658]
50 to 500 | 1 to 10 | CC(=O)N1c2ccc(-c3cnn(CCN4CCCC4=O)c3)cc2N(C(=O)C2CC2)C[C@@H]1C [Example I-660]
50 to 500 | 1 to 10 | CC(=O)N1c2ccc(-c3cnn(CC(=O)N4CCCCC4)c3)cc2N(C(=O)C2CC2)C[C@@H]1C [Example I-661]
50 to 500 | 1 to 10 | CC(=O)N1c2ccc(-c3cnn(CC(=O)N4CCC4)c3)cc2N(C(=O)C2CC2)C[C@@H]1C [Example I-672]
50 to 500 | 1 to 10 | CC(=O)N1c2ccc(-c3cnn(CCC(N)=O)c3)cc2N(C(=O)C2CC2)C[C@@H]1C [Example I-674]
50 to 500 | 1 to 10 | CC(=O)N1c2ccc(-c3cnn(CC#N)c3)cc2N(C(=O)C2CC2)C[C@@H]1C [Example I-675]
> 500 | 1 to 10 | CC(=O)N1c2ccc(-c3cnn(CC(=O)O)c3)cc2N(C(=O)C2CC2)C[C@@H]1C [Example I-676]
50 to 500 | 1 to 10 | CCNC(=O)Cn1cc(-c2ccc3c(c2)N(C(=O)C2CC2)CC(C)N3C(C)=O)cn1 (centres unmarked) [Example I-681]
50 to 500 | 1 to 10 | CC(=O)N1c2ccc(-c3cnn(CC(=O)N(C)C)c3)cc2N(C(=O)C2CC2)C[C@@H]1C [Example I-683]
50 to 500 | 0.1 to 1 | CC(=O)N1c2ccc(-c3cnn(CC4CCS(=O)(=O)CC4)c3)cc2N(C(=O)C2CC2)C[C@@H]1C [Example I-684]
50 to 500 | 1 to 10 | COC(=O)N1c2ccc(-c3cnn(C[C@@H]4CCNC4)c3)cc2N(C(=O)OC(C)C)C[C@@H]1C [Example I-691]
> 500 | > 10 | CC(=O)N1c2ccccc2N(C(=O)CCN(C)C)C[C@@H]1C [Example I-693]
> 500 | > 10 | CC(=O)N1c2ccccc2N(C(=O)c2ccccc2)C[C@@H]1C [Example I-694]
> 500 | > 10 | CC(=O)N1c2ccccc2N(C(=O)Cc2ccccc2)C[C@@H]1C [Example I-695]
> 500 | > 10 | CC(=O)N1c2ccccc2N(C(=O)CCc2ccccc2)C[C@@H]1C [Example I-696]
> 500 | > 10 | CC(=O)N1c2ccccc2N(C(=O)C2CCCCC2)C[C@@H]1C [Example I-697]
> 500 | > 10 | COc1ccc(CC(=O)N2C[C@H](C)N(C(C)=O)c3ccccc32)cc1 [Example I-698]
> 500 | > 10 | COc1cccc(CC(=O)N2C[C@H](C)N(C(C)=O)c3ccccc32)c1 [Example I-699]
> 500 | > 10 | COCCC(=O)N1C[C@H](C)N(C(C)=O)c2ccccc21 [Example I-700]

IC50 [1] [nM] | IC50 [2] [µM] | Compound
> 500 | > 10 | CC(=O)N1c2ccccc2N(C(=O)c2ccc3c(c2)OCO3)C[C@@H]1C [Example I-701]
> 500 | > 10 | COc1ccccc1C(=O)N1C[C@H](C)N(C(C)=O)c2ccccc21 [Example I-702]
> 500 | > 10 | CC(=O)N1c2ccccc2N(C(=O)c2ccc(-c3ccccc3)cc2)C[C@@H]1C [Example I-703]
> 500 | > 10 | CC(=O)N1c2ccccc2N(C(=O)c2ccncc2)C[C@@H]1C [Example I-704]
> 500 | > 10 | CC(=O)N1c2ccccc2N(C(=O)c2csc(C)n2)C[C@@H]1C [Example I-705]
> 500 | > 10 | CC(=O)N1c2ccccc2N(C(=O)CC2CCOCC2)C[C@@H]1C [Example I-706]
> 500 | > 10 | CC(=O)N1c2ccccc2N(C(=O)Cc2ccc(-c3ccccc3)cc2)C[C@@H]1C [Example I-707]
> 500 | > 10 | CC(=O)N1c2ccccc2N(C(=O)CC(C)C)C[C@@H]1C [Example I-708]
> 500 | > 10 | CC(=O)N1c2ccccc2N(C(=O)Cc2ccc3c(c2)OCO3)C[C@@H]1C [Example I-709]
> 500 | > 10 | CC(=O)N1c2ccccc2N(C(=O)Cc2cccc(C(F)(F)F)c2)C[C@@H]1C [Example I-710]
> 500 | > 10 | COc1ccccc1CC(=O)N1C[C@H](C)N(C(C)=O)c2ccccc21 [Example I-711]
> 500 | > 10 | CC(=O)N1c2ccccc2N(C(=O)COc2ccccc2)C[C@@H]1C [Example I-712]
> 500 | > 10 | CC(=O)N1c2ccccc2N(C(=O)CC2CCCC2)C[C@@H]1C [Example I-713]
> 500 | > 10 | CC(=O)N1c2ccccc2N(C(=O)C2CCCC2)C[C@@H]1C [Example I-714]
> 500 | > 10 | CC(=O)N1c2ccccc2N(C(=O)[C@H](C)c2ccccc2)C[C@@H]1C [Example I-715]
> 500 | > 10 | CC(=O)N1c2ccccc2N(C(=O)c2ccc3ccccc3c2)C[C@@H]1C [Example I-716]
> 500 | > 10 | CC(=O)N1c2ccccc2N(C(=O)c2ccc3c(c2)CCO3)C[C@@H]1C [Example I-717]
> 500 | > 10 | CC(=O)N1c2ccccc2N(C(=O)c2cccc(Cl)c2)C[C@@H]1C [Example I-718]
> 500 | > 10 | CC(=O)N1c2ccccc2N(C(=O)c2cccc3ccccc23)C[C@@H]1C [Example I-719]
50 to 500 | > 10 | CC(=O)N1c2ccccc2N(C(=O)c2ccco2)C[C@@H]1C [Example I-720]
> 500 | > 10 | CC(=O)N1c2ccccc2N(C(=O)c2cnc(C)cn2)C[C@@H]1C [Example I-721]
> 500 | > 10 | CC(=O)N1c2ccccc2N(C(=O)c2cc(C)on2)C[C@@H]1C [Example I-722]
> 500 | > 10 | CC(=O)N1c2ccccc2N(C(=O)c2ccc(-n3cccn3)cc2)C[C@@H]1C [Example I-723]

IC50 [1] [nM] | IC50 [2] [µM] | Compound
> 500 | > 10 | CC(=O)N1c2ccccc2N(C(=O)c2ccc3ncsc3c2)C[C@@H]1C [Example I-724]
> 500 | > 10 | CC(=O)N1c2ccccc2N(C(=O)c2csc(Nc3cccnc3)n2)C[C@@H]1C [Example I-725]
> 500 | > 10 | CC(=O)N1c2ccccc2N(C(=O)c2cnc(-c3cccnc3)s2)C[C@@H]1C [Example I-726]
> 500 | > 10 | CC(=O)N1c2ccccc2N(C(=O)CSc2ccccc2)C[C@@H]1C [Example I-727]
> 500 | > 10 | CC(=O)N1c2ccccc2N(C(=O)c2ccc(C(C)C)cn2)C[C@@H]1C [Example I-728]
> 500 | > 10 | CC(=O)N1c2ccccc2N(C(=O)c2ccc(C(C)C)nc2)C[C@@H]1C [Example I-729]
> 500 | > 10 | CC(=O)N1c2ccccc2N(C(=O)c2cc3ccccc3[nH]2)CC1C (centres unmarked) [Example I-730]
> 500 | > 10 | CC(=O)N1c2ccccc2N(C(=O)Cc2cccs2)C[C@@H]1C [Example I-731]
> 500 | > 10 | CC(=O)N1c2ccccc2N(C(=O)COc2ccc(Cl)cc2)C[C@@H]1C [Example I-732]
> 500 | > 10 | COc1ccc(OCC(=O)N2C[C@H](C)N(C(C)=O)c3ccccc32)cc1 [Example I-733]
> 500 | > 10 | CC(=O)N1c2ccccc2N(C(=O)COc2ccc3ccccc3c2)C[C@@H]1C [Example I-734]
> 500 | > 10 | CC(=O)N1c2ccccc2N(C(=O)COc2ccc(F)cc2)C[C@@H]1C [Example I-735]
> 500 | > 10 | CC(=O)N1c2ccccc2N(C(=O)COc2cccc3ccccc23)C[C@@H]1C [Example I-736]
> 500 | > 10 | CC(=O)N1c2ccccc2N(C(=O)[C@H]2COc3ccccc3O2)C[C@@H]1C [Example I-737]
> 500 | > 10 | COCC(=O)N1C[C@H](C)N(C(C)=O)c2ccccc21 [Example I-738]
> 500 | > 10 | CC(=O)N1c2ccccc2N(C(=O)Cc2csc3ccc(Cl)cc23)C[C@@H]1C [Example I-739]
> 500 | > 10 | CO[C@@H](C(=O)N1C[C@H](C)N(C(C)=O)c2ccccc21)c1ccccc1 [Example I-740]
> 500 | > 10 | CO[C@H](C(=O)N1C[C@H](C)N(C(C)=O)c2ccccc21)c1ccccc1 [Example I-741]
> 500 | > 10 | CC(=O)N1c2ccccc2N(C(=O)c2ccc(Oc3ccccc3)cc2)C[C@@H]1C [Example I-742]
> 500 | > 10 | CC(=O)N1c2ccccc2N(C(=O)c2ccc(Cl)cc2)C[C@@H]1C [Example I-743]
> 500 | > 10 | CC(=O)N1c2ccccc2N(C(=O)c2ccccc2Oc2ccccc2)C[C@@H]1C [Example I-744]
